For series [1], the system named is γδ T lymphocyte line. Kind of series: ELISA test for the production of TNFα in the γδ T lymphocyte line. The format is cell-based, human. As to conditions: for EC50: Homo sapiens, T-lymphocyte, 24 h. As to the method:
A buffy coat from a healthy donor with a high basal percentage of γδ T lymphocytes (approximately 6%) was selected for growth of the γδ T lymphocyte lines.
The PBMCs were separated out and cultured at a concentration of 1 x 10^6 cells/ml in the presence of IPP (160 ng/ml) and IL-2 (100 U/ml).
After 7 days incubation at 37°C with 5% CO2, 3 ml of medium were sampled and replaced with the same amount of fresh medium ennched with IL-2 (final concentration 100 U/ml).
After a further 7 days in the incubator an aliquot of the cultured cells was taken to label the membrane and measure the percentage of γδ T cells obtained from the expansion.
This cell line was then used to evaluate the production of TNFα following stimulation of the cells with the compounds under investigation, using an ELISA test.
In the ELISA test there were used cells from the line produced as disclosed above in a concentration of 2.5 x 10^5 cells/ml (5 x 10^4 cells/well).
The cells were then stimulated with the compounds under investigation and with isopentenyl pyrophosphate (IPP) as a reference at scalar doses.
After 24 hours the supernatants from the wells containing the stimulated cells were sampled and the ELISA test was carried out using the "Human TNFα Screening Set" kit (Endogen). The kit provides for treatment with an anti-TNFα biotinylate polyclonal antibody, the addition of peroxidase conjugated with streptavidine and quantitative determination using a chromogenic substrate. The plates were read spectrophotometrically at 450 nm.
Each compound was tested in duplicate.

In series [2] the test system is γδ T lymphocytes of peripheral blood mononucleate cells (PBMCs). Kind of series: Cytokine production assay on peripheral blood mononucleate cells (PBMCs), cytofluorimetry. Type of series: cell-based, human. The note with it: for activation at 10 µM / activation at 100 µM / activation at 1000 µM: Homo sapiens, PBMC, read-out: % increase in γδ T lymphocytes producing TNFα; for % increase in γδ T lymphocytes producing INFγ: IPP (10 µM) std = 100. As to the method: γδ T lymphocyte activation was tested by an assay involving the production of cytokines such as TNFα and IFNγ by the γδ T lymphocytes of peripheral blood mononucleate cells (PBMCs) from healthy donors (Poccia, F. et al., The Journal of Immunology 1997, 159, 6009-6017).
Mononucleate cells (PBMCs) were isolated from the peripheral blood of healthy donors, cultured at 37°C on a complete medium comprising RPMI 1640, 10% FCS, 1% L-glutamine, 1% penicillin-streptomycin in the presence of interleukin 2 (IL-2), T lymphocyte growth factor, and 5% CO2 in a controlled humidity environment, and then stimulated with isopentenyl pyrophosphate (IPP 10 µM) as a positive activation control and with various doses (10 µM, 100 µM) and 1000 µM) of compounds according to the invention, respectively.
Then it was performed a cytofluorimetric labelling using specific monoclonal antibodies (membrane labelling for the expansion and intra-cytoplasm labelling for the cytokines) and a cytofluorimetric measurement in order to establish the percentage of γδ T cells producing TNFα and IFNγ (cytokine production assay).

In series [3] the test system is Vγ9Vδ2 cells. Kind of series: Peripheral blood mononucleate cell (PBMC) cellular expansion assay. The format is cell-based, human. The note with it: tenth day of culture. As to the method: The effect of the compounds of this invention on the expansion of γδ T lymphocytes was investigated through an assay carried out on γδ T lymphocytes originating from the peripheral blood mononucleate cells from healthy donors (PBMCs).
The PBMCs were separated by centrifuging (Ficoll) on whole blood from samples (residual samples) from 7 healthy donors.
In control experiments the cells were treated with IPP at the same concentrations and under the same Experimental conditions.
On the tenth day of culture the cells were recovered and counted by means of a living count with Trypan Blue, and labelled with the same anti-Vd2-FITC antibody, and finally tested by cytofluorimetry to evaluate the percentage of Vγ9Vδ2 cells.
The absolute number of Vγ9Vδ2 cells was calculated using the following formula: No. of Vγ9Vδ2 cells = (total absolute no.of cells after expansion x%of Vγ9Vδ2cells after expansion)/100. [formula]

The test system of series [4] is alkaline phosphatase. Kind of series: Stability test in alkaline aqueous solution in the presence of alkaline phosphatase (enzyme hydrolysis), HPLC-MS. The note with it: for resistance to hydrolysis: in words, summary of Table 1; for Percentage of non-hydrolysed compound: 2 mM, pH 8 TRIS-HCl buffer, alkaline phosphatase, ambient temperature. As to the method:
The following compounds were selected for the stability tests in alkaline aqueous solution in the presence of alkaline phosphatase (SIGMA Phosphatase, alkaline-Agarose from calf intestine-P0762): [drawing 25] • Solution A: • pH 8 solution: TRIS-HCl buffer and 2 mM of MgCl2; • Solution B: • comparison versus solution A: 2 mM isopentenyl pyrophosphate (IPP) solution; • Solution C: • 2 mM isopentenyl thiopyrophosphate solution (Compound 8) of this invention into Solution A, • Solution D: • Solution of phosphatase enzyme immobilised on a solid substrate (agarose), 50 biological units into 10 ml of Solution A.
20 µl of Solution D were added to 0.5 ml of Solution B. The system was allowed to stand at ambient temperature under stirring. The solution was filtered to remove the enzyme and it was then analysed with HPLC-MS at predetermined time intervals (20, 30, 40, 50 and 60 minutes).
The same procedure was carried out with Solution C.

SMILES strings stand for the structures. Where a name gives a salt, the structure may show the parent alone.

`O=P(O)(O)OP(=O)(O)SCCCCCl` [Compound 1, S-(4-chlorobutyl) ester of the trisodium salt of thiodiphosphoric acid] came in with a half-maximal effective concentration (EC50) in series [1] of 100 µM. Also, in series [2], the activation at 10 µM is 81%, the activation at 100 µM amounted to 127% and the activation at 1000 µM amounted to 81.5%. For the same compound, the “% increase in γδ T lymphocytes producing INFγ” value in series [2] (PBMC/IL-2, 10 µM) is listed as 131%. In addition, the “% increase in γδ T lymphocytes producing INFγ” value in series [2] (PBMC/IL-2, 100 µM) was determined as 94%. Further, the “% increase in γδ T lymphocytes producing INFγ” value in series [2] (PBMC/IL-2, 1000 µM) is 132%.
Consider `C[C@H](O)CCSP(=O)(O)OP(=O)(O)O` [Compound 6, S-(3-hydroxybutyl)ester of the trisodium salt of biodiphosphoric acid], for which the concentration giving a half-maximal response (EC50) in series [1] stood at 75 µM. Further, in series [2], the activation at 10 µM amounted to 40%, the activation at 100 µM was determined as 114% and the activation at 1000 µM came to 310%.
`C=CCOCCSP(=O)(O)OP(=O)(O)O` [Compound 4, S-[2-(allyloxy)ethyl]ester of the trisodium salt of thiodiphosphoric acid] yielded an EC50 in series [1] of 10 µM. For the same compound, in series [2], the activation at 10 µM stood at 70.7%, the activation at 100 µM was found to be 130% and the activation at 1000 µM came to 299%.
The compound `C/C(=C\CSP(=O)(O)OP(=O)(O)O)CO` [Compound 9, S-[(E)-4-hydroxy-3-methyl-2-butenyl]ester of the trisodium salt of thiodiphosphoric acid] gave a 50% effective concentration (EC50) in series [1] of 0.0048 µM. In addition, the “EC50 relative to the EC50 for IPP” value in series [1] (production of TNFα, γδ T lymphocyte line) was found to be 1000 times. The “Expansion Index” value in series [3] (Donor A) was determined as 129.28; in series [3] (Donor B), 80.96; in series [3] (Donor C), 5.30; in series [3] (Donor D), 59.10; in series [3] (Donor E), 624.02; in series [3] (Donor F), 35.37. Besides, the “Expansion Index” value in series [3] (Donor G) amounted to 42.09. In addition, the activation at 10 µM in series [2] is 82.3%. For the same compound, the activation at 100 µM in series [2] stood at 175%. Besides, the activation at 1000 µM in series [2] turned out to be 464%. The “activity (γδ T cells producing cytokines)” value in series [2] (in words, at 100 and 1000 µM) is recorded as “a very clear increase”.
Turning to `C=C(C)CCSP(=O)(O)OP(=O)(O)O` [Compound 8, S-(3-methyl-3-butenyl)ester of the triammonium salt of thiodiphosphoric acid], in series [4], the resistance to hydrolysis entry is reported as “very much more resistant to hydrolysis”. Besides, the “Percentage of non-hydrolysed compound” value in series [4] (t = 0 min) was 100%; in series [4] (t = 20 min), 90%; in series [4] (t = 30 min) it was 90%; in series [4] (t = 40 min) it was 90%; in series [4] (t = 50 min), 90%; in series [4] (t = 60 min), 90%. The compound also came in with a concentration for a half-maximal effect (EC50) in series [1] of 3.75 µM. Besides, the activation at 10 µM in series [2] was found to be 39%. Further, the activation at 100 µM in series [2] came out at 92.6%. Besides, the activation at 1000 µM in series [2] is 174%. Moreover, the “% increase in γδ T lymphocytes producing INFγ” value in series [2] (PBMC/IL-2, 10 µM) amounted to 21%; in series [2] (PBMC/IL-2, 100 µM), 865%; in series [2] (PBMC/IL-2, 1000 µM), 182%.
For `O=P(O)(O)OP(=O)(O)SCCC1CC1` [Compound 3, S-(2-cyclopropylethyl)ester of the trisodium salt of thiodiphosphoric acid], the EC50 in series [1] stood at 13 µM. Moreover, in series [2], the activation at 10 µM was found to be 495%, the activation at 100 µM is 123% and the activation at 1000 µM was 158%.
In series [1], `O=P(O)(O)OP(=O)(O)SCCOCCCl` [Compound 2, S-[2-(2-chloroethoxy)ethyl] ester of the trisodium salt of thiodiphosphoric acid] showed a half-maximal effective concentration (EC50) of 0.39 µM. In series [2], the activation at 10 µM amounted to 60.4%, the activation at 100 µM worked out at 71.8% and the activation at 1000 µM amounted to 765%. The “% increase in γδ T lymphocytes producing INFγ” value in series [2] (PBMC/IL-2, 10 µM) is 56.4%. Further, in series [2] (PBMC/IL-2, 100 µM), the “% increase in γδ T lymphocytes producing INFγ” value is recorded as 67%. The “% increase in γδ T lymphocytes producing INFγ” value in series [2] (PBMC/IL-2, 1000 µM) was determined as 97.3%.
For the compound `C=C(C)CCO[P@@](=O)(O)OP(=O)(O)O` [IPP, isopentenyl pyrophosphate, reference compound], the resistance to hydrolysis result in series [4] is on record as “degrades rapidly”. For the same compound, the “Percentage of non-hydrolysed compound” value in series [4] (t = 0 min) amounted to 94%; in series [4] (t = 20 min) it was 48%; in series [4] (t = 30 min) it was 54%; in series [4] (t = 60 min), 27%. In series [2], the activation at 10 µM was 100%. Also, in series [2] (PBMC/IL-2, 10 µM), the “% increase in γδ T lymphocytes producing INFγ” value was 100%.

In general, EC50 refers to the concentration giving half of the maximal effect. A lower EC50 goes with greater potency.

For the origin of these results see patent EP1991554B1, “THIOPYR[…] COMPOUNDS, METHOD FOR PREPARING THEREOF AND COMPOSITIONS CONTAINING THEM” (C4T S.C. a.r.l., priority 2006, dated 2007).
